# Experimental data published in paper PMC6892276 (European Journal of Pharmaceutical Sciences, 2019).
# Key:
# [1] = target: T1, FLT3 (Homo sapiens, UniProt P36888); assay: KINOMEscan Kd determination against FLT3; type: binding; conditions: 11-point 3-fold dilution series, top concentration 5 μM
# T1 sequence (P36888 27-993): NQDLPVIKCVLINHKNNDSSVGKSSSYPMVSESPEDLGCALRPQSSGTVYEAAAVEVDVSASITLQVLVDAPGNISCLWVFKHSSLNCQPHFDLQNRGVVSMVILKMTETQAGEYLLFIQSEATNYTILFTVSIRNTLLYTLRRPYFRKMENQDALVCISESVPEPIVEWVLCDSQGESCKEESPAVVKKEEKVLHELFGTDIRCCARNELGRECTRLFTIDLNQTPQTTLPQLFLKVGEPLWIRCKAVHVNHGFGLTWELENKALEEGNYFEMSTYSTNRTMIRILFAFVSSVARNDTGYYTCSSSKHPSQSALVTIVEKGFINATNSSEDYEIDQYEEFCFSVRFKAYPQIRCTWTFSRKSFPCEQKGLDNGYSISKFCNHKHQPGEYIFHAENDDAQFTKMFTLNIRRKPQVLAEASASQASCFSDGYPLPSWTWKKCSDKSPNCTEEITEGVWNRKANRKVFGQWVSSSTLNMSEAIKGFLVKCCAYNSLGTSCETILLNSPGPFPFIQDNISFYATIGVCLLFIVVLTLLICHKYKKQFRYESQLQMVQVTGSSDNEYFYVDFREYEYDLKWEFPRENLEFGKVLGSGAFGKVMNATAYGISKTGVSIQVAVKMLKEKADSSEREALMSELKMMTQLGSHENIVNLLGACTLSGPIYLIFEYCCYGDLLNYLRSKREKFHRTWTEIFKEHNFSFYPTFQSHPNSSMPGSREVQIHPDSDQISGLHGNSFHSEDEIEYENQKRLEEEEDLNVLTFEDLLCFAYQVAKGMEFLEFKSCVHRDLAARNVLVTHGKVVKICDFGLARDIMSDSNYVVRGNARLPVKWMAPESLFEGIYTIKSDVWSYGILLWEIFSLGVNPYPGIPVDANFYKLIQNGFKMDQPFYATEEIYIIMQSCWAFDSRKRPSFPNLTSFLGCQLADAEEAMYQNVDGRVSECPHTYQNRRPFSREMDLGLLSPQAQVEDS
# Procedure: (§1) Kds were determined using an 11-point 3-fold compound dilution series (top concentration 5 μM) with three DMSO control points.
# [2] = target: T2, FLT3-ITD (Homo sapiens, UniProt P36888, ITD); assay: KINOMEscan Kd determination against FLT3-ITD; type: binding; conditions: 11-point 3-fold dilution series, top concentration 5 μM
# T2 sequence (P36888 564-993): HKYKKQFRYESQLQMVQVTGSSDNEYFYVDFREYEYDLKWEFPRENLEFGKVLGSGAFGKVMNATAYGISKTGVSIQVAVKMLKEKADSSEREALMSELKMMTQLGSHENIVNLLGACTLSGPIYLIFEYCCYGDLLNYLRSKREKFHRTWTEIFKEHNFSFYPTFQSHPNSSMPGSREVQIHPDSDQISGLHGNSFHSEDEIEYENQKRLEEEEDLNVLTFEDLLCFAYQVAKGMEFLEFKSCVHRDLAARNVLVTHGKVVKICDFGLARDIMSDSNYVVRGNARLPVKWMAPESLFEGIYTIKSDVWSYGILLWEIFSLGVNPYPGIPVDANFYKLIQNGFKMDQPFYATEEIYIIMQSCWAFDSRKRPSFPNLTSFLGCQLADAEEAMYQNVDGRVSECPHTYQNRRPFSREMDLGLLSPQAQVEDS
# Procedure: as §1
# [3] = target: T3, Aurora-A (Homo sapiens, UniProt O14965); assay: KINOMEscan Kd determination against Aurora-A; type: binding; conditions: 11-point 3-fold dilution series, top concentration 5 μM
# T3 sequence (O14965 1-403): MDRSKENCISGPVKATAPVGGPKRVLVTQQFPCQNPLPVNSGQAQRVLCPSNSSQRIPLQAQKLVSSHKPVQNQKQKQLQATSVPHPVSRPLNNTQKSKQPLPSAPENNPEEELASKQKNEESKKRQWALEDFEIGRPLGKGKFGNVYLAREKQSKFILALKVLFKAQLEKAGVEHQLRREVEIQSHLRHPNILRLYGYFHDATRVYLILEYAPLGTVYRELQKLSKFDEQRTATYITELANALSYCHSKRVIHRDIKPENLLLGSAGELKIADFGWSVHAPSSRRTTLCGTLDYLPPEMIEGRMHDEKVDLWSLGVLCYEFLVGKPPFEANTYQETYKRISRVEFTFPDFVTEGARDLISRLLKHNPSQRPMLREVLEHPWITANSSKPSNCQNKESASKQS
# Procedure: as §1
# [4] = target: Aurora-B (Homo sapiens, UniProt Q96GD4); assay: KINOMEscan Kd determination against Aurora-B; type: binding; conditions: 11-point 3-fold dilution series, top concentration 5 μM
# Procedure: as §1
# [5] = Metabolite profiling in human hepatocytes and HLM; type: in vitro ADME; conditions: for metabolite abundance, % of T0 parent (LC-MS response): HLM only
# Procedure: (§2) Suspended hepatocyte incubations for the purposes of metabolite identification and CLint determination were conducted as described by [Wood et al. (2018)] in round-bottomed 350 μl 96-well polypropylene plates on a PHMP thermoshaker (Grant Instruments (Cambridge) Ltd. (Shepreth, UK)) at 37 °C and 900 rpm. […] Individual wells were quenched with 120 μl of methanol containing internal standard over a time course (Table 1) and an aliquot removed for analysis.
# (§3) Prior to initiation of the reaction by the addition of NADPH (final concentration 1 mM), an aliquot was removed from each incubation and quenched in ice cold methanol containing internal standard (referred to as T0). NADPH was subsequently added to this solution for matrix matching. The remaining reaction (with addition of NADPH) was allowed to proceed for 60 min. At 0.5, 5, 15, 30 and 60 min aliquots were sampled and quenched as above. Incubations were conducted in singlicate; control incubations (substituting PBS for NADPH) were conducted simultaneously.
# (§4) For the purpose of metabolite identification, samples were analysed using a Dionex Ultimate 3000 UHPLC system coupled to a ThermoScientific Q Exactive Plus orbitrap mass spectrometer (Thermo Fisher Scientific Inc., Waltham, USA). Separation of analytes was achieved using an Acquity UPLC HSS T3 column (1.8 μm, 100 × 2.1 mm) (Waters, Elstree, UK) at a temperature of 50 °C and a binary mobile phase gradient at a flow rate of 0.4 ml/min. Initial conditions comprised 10% solvent A (0.1% formic acid in water), 90% solvent B (methanol); this was ramped to 95% A at 12 min, immediately returned to initial conditions and held for the remaining 3 min of the method. The UV absorbance of samples at 230 nm and 260 nm was monitored using a Dionex Ultimate 3000 diode array detector. Sample analysis was by electrospray atmospheric pressure ionization combined with full scan acquisition in positive ion mode over a mass range 80–1200 m/z. The capillary voltage was 3.5 kV; desolvation gas and capillary temperatures were 450 °C and 275 °C respectively; sheath, aux and sweep gas flow rates were 55, 15 and 3 respectively. Full MS/dd-MS^2 (full MS scan followed by data dependent MS/MS) and Full MS/AIF (full MS scan followed by all ion fragmentation) workflows were used in combination.
# (§5) Identification of metabolites and elucidation of their proposed structures was undertaken with the aid of the software Compound Discoverer (v2.0.0.303, Thermo Fisher Scientific Inc., Waltham, USA). RAW data files containing accurate mass data and fragmentation spectra generated in the acquisition software Chromeleon (v7.2 SR3 (7553), Thermo Fisher Scientific Inc., Waltham, USA) were input into Compound Discoverer and processed using the targeted workflow described in Fig. 1 of the Appendix. The final time point of a parallel incubation of a different compound was used as a sample blank and any chromatographic peaks identified with the same m/z and retention time as in this sample were marked as background compounds and therefore not considered as potential metabolites. The Compound Discoverer application combines accurate mass data, isotope pattern matching and predicted biotransformations based on the parent compound's structure to generate a series of expected and unexpected compounds or metabolites. These were manually filtered using a typical criteria of peak area greater than or equal to 5000 counts per sec; compound identified in samples of at least three time points and peak area ratio of compound in Tx relative to T0 greater than or equal to 2, where Tx represents any given time point. […] The fragmentation spectra of these analytes were compared to those of the parent to facilitate structural interpretation of biotransformations. […]
# [6] = Metabolite profiling in mouse hepatocytes and MLM; type: in vitro ADME; conditions: for % total metabolite response: MLM 1 mg/ml, 1 μM; for maximal metabolite abundance, % of T0 parent (LC-MS/MS response): mouse hepatocytes and MLM; for % T0 parent response, minor metabolites: mouse, matrix not stated
# Procedure: as §2, §3, §4, §5
# [7] = Metabolite profiling in rat hepatocytes and RLM; type: in vitro ADME
# Procedure: as §2, §3
# (§6) For the purpose of metabolite identification, samples were analysed using a Dionex Ultimate 3000 UHPLC system coupled to a ThermoScientific Q Exactive Plus orbitrap mass spectrometer (Thermo Fisher Scientific Inc., Waltham, USA). […] The UV absorbance of samples at 230 nm and 260 nm was monitored using a Dionex Ultimate 3000 diode array detector. […]
# [8] = Metabolite profiling in dog hepatocytes and DLM; type: in vitro ADME; conditions: dog hepatocytes and microsomes of both sexes
# Procedure: as §2, §3, §6
# Chain of Aurora-B (Q96GD4 whole entry): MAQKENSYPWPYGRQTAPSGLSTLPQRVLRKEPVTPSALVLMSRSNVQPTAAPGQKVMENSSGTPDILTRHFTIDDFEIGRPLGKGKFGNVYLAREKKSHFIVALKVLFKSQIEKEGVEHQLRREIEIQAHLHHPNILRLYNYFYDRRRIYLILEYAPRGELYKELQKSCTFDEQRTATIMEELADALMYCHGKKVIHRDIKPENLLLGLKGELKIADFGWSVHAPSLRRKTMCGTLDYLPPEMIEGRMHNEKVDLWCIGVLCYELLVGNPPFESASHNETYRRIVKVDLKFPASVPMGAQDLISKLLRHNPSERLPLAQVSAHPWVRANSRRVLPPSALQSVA
smiles,measurement,setting,value
Cc1nn(C)cc1-c1nc2c(N3CCNCC3)c(Cl)cnc2[nH]1 [Compound M1],Kd,[1],7.9 nM
same,Kd,[2],82 nM
same,Kd,[3],33 nM
same,Kd,[4],130 nM
same,"metabolite abundance, % of parent LC-MS response at T0","[5]; HLM, final sampled time point",10.6%
same,"metabolite abundance, % of parent LC-MS response at T0",[5]; human hepatocytes and HLM,approximately 10%
same,"metabolite abundance, % of parent LC-MS response at T0","[5]; human hepatocytes, final sampled time point",9.4%
same,% total metabolite response,[6]; peak of initial increase,up to 7%
Cc1nn(C)cc1-c1nc2c(NCCNCc3ccc(Cl)cc3)c(Cl)cnc2[nH]1 [Compound M4],"metabolite abundance, % of parent LC-MS response at T0",[5]; human hepatocytes and HLM,< 2%
same,"metabolite abundance, % of parent","[7]; RLM, at most",< 2%
same,"maximal metabolite abundance, % of T0 parent (LC-MS/MS response)",[7]; rat hepatocytes,8–10%
Cc1nn(C)cc1-c1nc2c(N3CC[N+]([O-])(Cc4ccc(Cl)cc4)CC3)c(Cl)cnc2[nH]1 [Compound M2],% total metabolite response,"[5]; HLM 1 mg/ml, 1 μM, 60 min incubation",3.5%
same,% total metabolite response,[6]; within the first 30 min of incubation,> 25%
same,"maximal metabolite abundance, % of T0 parent (LC-MS/MS response)",[6],> 10%
Cc1n[nH]cc1-c1nc2c(N3CCN(Cc4ccc(Cl)cc4)CC3)c(Cl)cnc2[nH]1 [Compound M3],"metabolite abundance, % of parent LC-MS response at T0",[5]; human hepatocytes and HLM,< 2%
same,"maximal metabolite abundance, % of T0 parent (LC-MS/MS response)",[8],> 10%
same,"% T0 parent response, minor metabolites",[6],< 2%
Cc1nn(C)cc1-c1nc2c(NCCN)c(Cl)cnc2[nH]1 [Compound M7],"metabolite abundance, % of T0 parent (LC-MS response)",[5],< 2%
same,"maximal metabolite abundance, % of T0 parent (LC-MS/MS response)",[6],> 10%
Cc1n[nH]cc1-c1nc2c(N3CCNCC3)c(Cl)cnc2[nH]1 [Compound M6],"metabolite abundance, % of T0 parent (LC-MS response)",[5],< 2%
same,"% T0 parent response, minor metabolites",[6],< 2%
